{
  "source": "patent US20220256848A1",
  "about": "“NEO-BAVAISOFLAVONE AND COMPOSITIONS THEREOF AND THEIR USE AS PESTICIDES” (priority 2019, published 2022)",
  "key": {"Puccinia sorghi [1]": {"test_system": "Puccinia sorghi", "format": "cell-based"}, "Pythium aphanidermatum": {"test_system": "Pythium aphanidermatum", "assay": "Microplate zoospore growth assay against Pythium aphanidermatum", "format": "cell-based", "conditions": "grade x repeats x days of activity /252 x100", "protocol": "Summary: Diluted purified neo-bavaisoflavone was added to microplate wells and mixed with 50 ul of zoospores in PDBC suspension and the growth of the fungus, starting from zoospores, was monitored by plate reader and visual inspection\n2) Add 50 ul of zoospore suspension inoculum to the wells of the microplate using a multi-pipette. Mix the spore suspension vigorously by hand and decant amount needed for one plate (5 ml) to keep the zoospores well suspended\n(§1) 4) Shake the plate for 10 min at 2000 RPM to mix the neo-bavaisoflavone with the hyphae suspension\n(§2) 7) Read the plate using the plate reader\n(§3) 9) Insert collected plates to a plastic box with cloth cover and put the box in the incubator at 27° C.\n1) Read out the plate at 3 more dates: 3d, 7d, 14d and 21d following the assay start\n2) Calculate the difference of absorbance between each readout and the readout at zero time\n(§4) 3) Calculate the percentage of growth inhibition of each well at each time point. Use the results of the DMSO treatment of the control plate as 100% growth\n4) Prepare a table of the results of hits that were repeated in all 4 repeats. Set a column for each time point.\n(§5) The bioactivity values are in % and reflect the potential of eradicating the target pests.\nb. […]"}, "Sclerotinia sclerotiorum": {"test_system": "Sclerotinia sclerotiorum", "assay": "Microplate hyphae growth assay against Sclerotinia sclerotiorum", "format": "cell-based", "protocol": "Summary: Diluted purified neo-bavaisoflavone was added to microplate wells and mixed with 50 ul of hyphae suspension and growth of the fungus starting from blended hyphae was monitored by visual inspection.\nBackground: Sclerotinia sclerotiorum is a fungus of belonging to the Ascomycetes and it is a soil borne pathogen. It is difficult to produce large amounts of spores of Sclerotinia sclerotiorum, that led to decision to use hyphae in this screening rather than spores for inoculation.\n2) Add 50 ul of hyphae suspension to the wells of the microplate, mix the spore suspension vigorously by hand and decant amount needed for one plate (5 ml) to keep the hyphae well suspended\nas §1\n7) Insert microplates into a plastic box and put the box in the incubator at 21° C.\n1) Screen plate at […]: 4, 7, 14 and 21 days after inoculation\n2) Use a lamp for visual assessment of compounds effect on fungal growth overtime\n4) Compare the hyphal growth of each well to the hyphal growth of the control plate wells (Wells containing active fungicides or 0.5% DMSO solution)\n5) Write the results on a special form: clear well=3 (no growth of hyphae), normal hyphal structure=1 (normal growth), inconclusive=2 (solid structure of unexpected type, or partial cover of the area) […]"}, "[2]": {"test_system": "Puccinia stritiformis (yellow rust)", "assay": "Uredospores of yellow rust in pustules on field-treated wheat leaves (experiment 108)", "format": "in vivo"}, "Rhizoctonia solani": {"test_system": "Rhizoctonia solani", "assay": "Microplate hyphae growth assay against Rhizoctonia solani", "format": "cell-based", "conditions": "grade x repeats x days of activity /252 x100", "protocol": "Summary: Diluted purified neo-bavaisoflavone was added to microplate wells and mixed with 50 ul of hyphae suspension and growth of the fungus, starting from blended hyphae, was monitored by plate reader and visual inspection.\n2) Add 50 ul of hyphae suspension to the wells of the microplate using a multi-pipette, mix the spore suspension vigorously by hand and decant amount needed for one plate (5 ml) to keep the hyphae well suspended\nas §1, §2, §3\n1) Screen plate at 3 more dates: 3d, 7d, 14d and 21d following the assay start\n2) Calculate the difference of absorbance between each screen and the read at zero time\nas §4, §5\n(§6) b. Pseudomonas syringae, Rhizoctonia solani, Fusarium oxysporum, Pythium aphanidermatum—activity grade (1/2/3) X repeats# X days of activity/252 (maximal value 3×4×21=252)*100"}, "Phytophthora infestans": {"test_system": "Phytophthora infestans", "format": "cell-based", "conditions": "activity grade x repeats /12 x100"}, "Fusarium oxysporum": {"test_system": "Fusarium oxysporum", "assay": "In-vitro screening against Fusarium oxysporum", "format": "cell-based", "conditions": "grade x repeats x days of activity /252 x100", "text": "as §5, §6"}, "Puccinia sorghi [3]": {"test_system": "Puccinia sorghi", "assay": "Puccinia infection of corn seedlings test (growth room)", "format": "in vivo", "conditions": "corn plants, five independent growth room experiments", "text": "FIGS. 1-5 show effect of neo-bavaisoflavone (NBI) on corn leaf infection by Puccinia sorghi in five independent experiments, determined as leaf % covered by the fungus. *—p-value <0.05, **—p-value is <0.01, *** —p-value is <0.001. Signum—A reference fungicide containing 26.7% w/w boscalid and 6.7% w/w pyraclostrobin (BASF®). Fl, Formulation 1; F2, Formulation 2—see Example 5. ppm—parts per million.\nIn order to assist the compound dissolution to final working concentration and its spread over the sprayed surface first dry weighed Neo-bavaisoflavone was dissolved in dimethyl-sulfoxide solvent with 1:9 ratio and then brought up to the final volume used for the validation with double distilled water. Before spraying, non-ionic detergent tween 20 was added to final concentration of 0.05%.\nIn order to assist the compound dissolution to final working concentration and its spread over the sprayed surface first dry weighed Neo-bavaisoflavone was dissolved in absolute ethanol with 1:8 ratio, sonicated for 5 mins and then another part of non-ionic detergent tween 20 was added for formulation finalization. Before spraying, additional amount of 0.05% tween 20 was added (disregarding amount of tween 20 added before).\nProtocol name: Puccinia infection of corn seedlings test\nGeneral description: inoculation on corn, collection, preparation of spore suspension and material activity study, of Puccinia sorghi.\n• Use 8 days old seedlings prepared as explained above • Prepare treatment for spraying—about 1 ml for each plant • Add Tween 20 up to 0.05% to the treatments • Spray treatment on to the leaves till full saturation (use a spray bottle) and let dry in the growth room • Repeat spray on the second day and let dry • On the second day (after about 4 hours from the treatment spray) inoculate plants using the Puccinia spore suspension • Use spraying bottle to spray about 1 ml (till full saturation) of the spore suspension on to the leaves of 9 days old corn seedlings • Put the pots with the inoculated seedlings in a dark moist chamber with heated water at the bottom. […]"}, "Botrytis cinerea": {"test_system": "Botrytis cinerea", "assay": "In-vitro screening against Botrytis cinerea", "format": "cell-based", "conditions": "grade x repeats x days of activity /168 x100", "text": "as §5\nc. Botrytis cinerea—activity grade (1/2/3) X repeats# X days of activity/168 (maximal value 3×4×14=168)*100"}, "Mizus Persicae": {"test_system": "Mizus Persicae", "assay": "In-vitro screening matrix, Mizus Persicae", "text": "as §5"}, "Puccinia triticina": {"test_system": "Puccinia triticina", "assay": "Puccinia triticina infected wheat, growth room under controlled temperature", "format": "in vivo", "conditions": "200 ppm", "text": "Mean of 3 independent replicates is presented. ** means that p-value is <0.01. Formulation 1 see “Formulation preparation for in-planta validation” below.\nWe conducted 3 independent experiments in greenhouse where we estimated neo-bavaisoflavone's (NBI) potential to prevent and control Puccinia triticina in wheat plants (FIG. 6). Each bar in FIG. 6 represents average of four replicates per treatment. Neo-bavaisoflavone controlled the leaf rust with the following efficacies: between 30% to 50% at 200 ppm and between 30% to 40% at 400 ppm. One additional experiment was conducted under controlled temperature in growth room conditions (FIG. 7) where neo-bavaisoflavone controlled the wheat leaf rust with the efficacy up to 40% at 200 ppm."}, "[4]": {"test_system": "Pectobacterium carotovorum", "assay": "In-vitro screening against Pectobacterium carotovorum", "format": "cell-based", "conditions": "grade x repeats x days of activity /84 x100", "text": "as §5\nd. Pectobacterium carotovorum—activity grade (1/2/3) X repeats# X days of activity/84 (maximal value 3×4×7=[…])*100"}, "Spodoptera litoralis": {"test_system": "Spodoptera litoralis", "assay": "In-vitro screening matrix, Spodoptera litoralis", "text": "as §5"}, "Pseudomonas syringae": {"test_system": "Pseudomonas syringae", "assay": "Microplate bacterial growth assay against Pseudomonas syringae", "format": "cell-based", "conditions": "grade x repeats x days of activity /252 x100", "protocol": "Summary: Diluted purified neo-bavaisoflavone was added to microplate wells and mixed with […] of frozen bacteria suspension and growth of the bacteria was monitored by visual inspection.\nBackground: Pseudomonas is a rod-shaped Gram-negative bacterium. Frozen bacteria stock of 60% glycerol was used as an inoculum for the screening experiment.\n1) Take a plate with Neo-bavaisoflavone (10 ul) from the −20° C. freezer and thaw it on the bench for at least 20 min\n2) Add 80 ul of bacteria suspension with growth medium to each well of the microplate using a multi-pipette\n4) Shake the plate for 10 min at 2000 RPM to mix the Neo-bavaisoflavone with the bacteria suspension\n6) Insert the plates to a plastic box with cover and put the box in the incubator at 28° C.\n1) Screen the microplate at 5 dates: 3, 5, 7, 14 and 21 days after inoculation\n2) Use a lamp to visually evaluate the bacterial growth\n3) Prepare plates for screening: shake plate at 2000 RPM for 2 min to suspend the bacteria and then centrifuge plate at 1000 RCF for a few seconds\n5) Compare the transparency of each well to the transparency of the control wells (wells containing control bactericide or 0.5% DMSO solution)\nWrite the results on a special form: clear=3 (no growth of bacteria), turbid=1(normal bacterial growth), inconclusive=2 (very low turbidity compared to growth in 0.5% DMSO solution) […]"}, "[5]": {"test_system": "Puccinia stritiformis (yellow rust)", "assay": "Field validation in wheat, yellow rust leaf infection intensity (curative)", "format": "in vivo", "conditions": "wheat field experiments"}, "[6]": {"conditions": "Day 0 after field treatment, ±SE, experiment 108"}, "[7]": {"conditions": "Day 7 after field treatment, only one case, no replicates"}},
  "note": "Marks after values point to notes of the source that are not given here.",
  "data": [
    {"smiles": "CC(C)=CCc1cc(-c2coc3cc(O)ccc3c2=O)ccc1O", "note": "[Neo-bavaisoflavone]", "values": [
      {"measurement": "Relative Activity value (%)", "setting": "Puccinia sorghi [1]", "result": 75, "unit": "%"},
      {"measurement": "Relative Activity value (%)", "setting": "Pythium aphanidermatum", "result": 75, "unit": "%"},
      {"measurement": "Relative Activity value (%)", "setting": "Sclerotinia sclerotiorum", "result": 17, "unit": "%"},
      {"measurement": "Collapsed spores (Percent)", "setting": "[2]; [6]", "result": "36.8 ± 13.03", "unit": "%"},
      {"measurement": "Number of collapsed spores (No./pustule)", "setting": "[2]; [6]", "result": "4.8 ± 2.03", "unit": "No./pustule"},
      {"measurement": "Number of uredospores/pustule", "setting": "[2]; [6]", "result": "14.8 ± 3.37", "unit": "No."},
      {"measurement": "Collapsed spores (Percent)", "setting": "[2]; [7]", "result": 1.9, "unit": "%"},
      {"measurement": "Number of collapsed spores (No./pustule)", "setting": "[2]; [7]", "result": 0.8, "unit": "No./pustule"},
      {"measurement": "Number of uredospores/pustule", "setting": "[2]; [7]", "result": "6.5* No."},
      {"measurement": "Relative Activity value (%)", "setting": "Rhizoctonia solani", "result": 75, "unit": "%"},
      {"measurement": "Relative Activity value (%)", "setting": "Phytophthora infestans", "result": 0, "unit": "%"},
      {"measurement": "Relative Activity value (%)", "setting": "Fusarium oxysporum", "result": 0, "unit": "%"},
      {"measurement": "average efficacy in preventing and controlling Puccinia sorghi", "setting": "Puccinia sorghi [3]; 200 ppm", "result": 87.39, "unit": "%"},
      {"measurement": "average efficacy in preventing and controlling Puccinia sorghi", "setting": "Puccinia sorghi [3]; 400 ppm", "result": 91.94, "unit": "%"},
      {"measurement": "average efficacy in preventing and controlling Puccinia sorghi", "setting": "Puccinia sorghi [3]; 800 ppm", "result": 94.07, "unit": "%"},
      {"measurement": "Relative Activity value (%)", "setting": "Botrytis cinerea", "result": 0, "unit": "%"},
      {"measurement": "Relative Activity value (%)", "setting": "Mizus Persicae", "result": 0, "unit": "%"},
      {"measurement": "efficacy of wheat leaf rust control", "setting": "Puccinia triticina", "result": "up to 40%"},
      {"measurement": "Relative Activity value (%)", "setting": "[4]", "result": 0, "unit": "%"},
      {"measurement": "Relative Activity value (%)", "setting": "Spodoptera litoralis", "result": 0, "unit": "%"},
      {"measurement": "Relative Activity value (%)", "setting": "Pseudomonas syringae", "result": 100, "unit": "%"},
      {"measurement": "relative leaf area covered by the fungi", "setting": "[5]", "result": "significantly reduced"}
    ]}
  ]
}
